Test results: patent US20230130066A1, “USE OF CYCLODEXTRINS IN DISEASES AND DISORDERS INVOLVING PHOSPHOLIPID DYSREGULATION” (priority 2017, published 2023)
“Also recorded” adds a separate entry of the source. Like-named read-outs stand apart in the source and are kept apart here. Marks after values point to notes of the source that are not given here.

What was measured:
human keratinocytes = conditions: cited from earlier work
[1] = cited from earlier work
[2] = LDL-receptor knockout mice, Western diet (21% milk fat) with 2.1% α-CD; cited from earlier work
MCF-7 cells = assay: Wound healing / gap closure migration assay, MCF-7; assay type: cell-based, human; conditions: extrapolated from the results in FIG. 35
Procedure: Cells were cultured in 24-well culture plates (Cytoselect CBA-120, 0.9 mm wound healing/gap closure migration assay) for 24 h with wound healing insert in place.
Protocol: Warm up the 24-well plate (CBA-120, Cell BioLabs Inc.) with 0.9 mm CytoSelect Wound Healing Inserts at room temperature for 10 minutes. Using sterile forceps, orient the desired number of inserts in the plate wells with their “wound field” aligned in the same direction. Create a cell suspension containing 0.5-1.0×10^6 cells/ml in media containing 10% fetal bovine serum (FBS). Add 500 μL of cell suspension to each well by carefully inserting the pipette tip through the open end at the top of the insert. For optimal cell dispersion, add 250 μL of cell suspension to either side of the open ends at the top of the insert. Incubate cells in a cell culture incubator for 12-24 hours. Carefully remove the insert from the well to begin the wound healing assay. Use sterile forceps to grab and lift the insert slowly from the plate well. Slowly aspirate and discard the media from the wells. Wash wells with media to remove dead cells and debris. Finally, add media to wells to keep cells hydrated. Repeat wash if wells still have debris or unattached cells. When washing is complete, add media with FBS and/or compounds to continue cell culture and wound healing process. Agents that inhibit or stimulate cell migration can be added directly to the wells. Incubate cells in a cell culture incubator (2 hours) and then wash cells with PBS and then add fresh media without compounds. Incubate 12-24 hours before wash and fixing. Remove the fixation solution and add 400 μL of Cell Stain Solution to each well. Allow the stain to incubate with the cells for 15 minutes at room temperature. Aspirate and discard the solution. Carefully wash each stained well 3× with deionized water. Discard washes and allow cells to dry at room temperature. Cells that migrated into the wounded area or protruded from the border of the wound were visualized and photographed under an inverted microscope. Determine the surface area of the defined wound area: Total Surface Area=0.9 mm x length. Determine the surface area of the migrated cells into the wound area: Migrated Cell Surface Area=length of cell migration (mm)×2×length. Percent Closure (%)=Migrated Cell Surface Area/Total Surface Area x 100.

rats [3] = conditions: cited from earlier work; for nephrosis, 1, 2, 3, 4, or 7 daily doses s.c.: 0.100 g/kg daily
[4] = parenteral delivery; cited from earlier work
[5] = system: enlarged lysosomes in fibroblasts; conditions: about 6 mM α-CD vs about 8 mM HP-β-CD; cited from earlier work
[6] = in vivo; cited from earlier work
rats [7] = conditions: rat, in vivo, iv; cited from earlier work
[8] = cited from earlier work; remark: listed apart in the source
BBB = conditions: cited from earlier work
[9] = 12 mM cyclodextrin, 5 μM A2E, blue-light irradiation or 1 d in the dark; cited from earlier work
NPC cells = conditions: cited from earlier work
transferrin endocytosis = conditions: 10 mM; cited from earlier work
[10] = animal studies; cited from earlier work
HaCaT keratinocytes = conditions: v. βCD; cited from earlier work
erythrocytes = conditions: cited from earlier work
rats [11] = conditions: cited from earlier work
human erythrocytes = conditions: cited from earlier work
[12] = Table 3; cited from earlier work

## OC[C@H]1O[C@@H]2O[C@H]3[C@H](O)[C@@H](O)[C@@H](O[C@H]4[C@H](O)[C@@H](O)[C@@H](O[C@H]5[C@H](O)[C@@H](O)[C@@H](O[C@H]6[C@H](O)[C@@H](O)[C@@H](O[C@H]7[C@H](O)[C@@H](O)[C@@H](O[C@H]1[C@H](O)[C@H]2O)O[C@@H]7CO)O[C@@H]6CO)O[C@@H]5CO)O[C@@H]4CO)O[C@@H]3CO [α-CD, alpha-cyclodextrin]
Human keratinocytes
  apoptotic cell death: not apoptotic
[1]
  oral absorption in rats: 2-3%
[2]
  decrease of plasma PLs: 17.5%
MCF-7 cells
  dose with the same efficacy in preventing migration of cancer cells as 2000 mg/kg/d bCD: 700 mg/kg/day
Rats [3]; listed as α-cyclodextrin
  nephrosis, 1, 2, 3, 4, or 7 daily doses s.c.: not apparent
Rats [3]
  nephrosis, 1, 2, 3, 4, or 7 daily doses s.c.: 0.100 no nephrosis
Rats [3]; 1.000 g/kg daily, listed as α-cyclodextrin
  deaths, daily doses s.c.: 1 died after 2 days
Rats [3]; 1.000 g/kg daily
  deaths, daily doses s.c.: one died after 2 days
  nephrosis, daily doses s.c.: 1.000 severe
[4]
  excretion into the urine: excreted almost completely in an intact form
[5]
  reducing lysosomal storage: more effective
[6]
  tolerance in cyclosporine eye-drops: well tolerated
Rats [7]
  single dose i.v. LD50: 0.788/1.008 * g/kg
[8]
  i.v. toxicity, 1 g daily: 1 died
BBB
  BBB breakdown: 1 mM
  toxicity on BBB in vitro: more toxic
[9]
  protection of A2E against oxidation: not
NPC cells
  cholesterol accumulation: can reduce cholesterol accumulation
Transferrin endocytosis
  reduction of transferrin endocytosis: 20%
[10]
  ototoxicity: did not show ototoxicity
HaCaT keratinocytes
  toxicity in HaCaT cells (proliferation, caspase activity, lactose dehydrogenase): lower toxicity
erythrocytes; 10 mM
  phospholipids released: 30%
erythrocytes; erythrocytes
  extraction of cholesterol: negligible
Rats [11]; 0.100 g/kg
  nephrosis, single dose s.c.: 0.100 no changes
Rats [11]; 1.000 g/kg
  nephrosis, single dose s.c.: 1.000 changes seen
Human erythrocytes
  hemolytic activity / tolerance of human erythrocytes: lower than that of both β-CD and HP-β-CD; also recorded: tolerate α-CD better then β-CD
[12]
  Solubility in water: 130 to 145 g/L
